Data on 21 molecules can be found in ChEMBL document CHEMBL4673333, “Bioactive Limonoids and Triterpenoids from the Fruits of Melia azedarach” (J Nat Prod, 2020).

Activity calls are given as the source filed them. The rule behind the calls is not given here.

What all share (format): functional, cell-based
Assay [1] has as its system A549. Kind of assay: Cytotoxicity against human A549 cells assessed as reduction in cell viability by CCK8 assay. Background: Formazan colour is commonly taken as a measure of viable cells.
Assay [2] concerns HCT-116. Kind of assay: Cytotoxicity against human HCT-116 cells assessed as reduction in cell viability by CCK8 assay.
In assay [3] the test system is HT-29. The experiment in a line: Cytotoxicity against human HT-29 cells assessed as reduction in cell viability by CCK8 assay.
Assay [4] deals with U-251. The experiment in a line: Cytotoxicity against human U-251 cells assessed as reduction in cell viability by CCK8 assay.
Assay [5] relates to Bel-7402. The experiment in a line: Cytotoxicity against human Bel-7402 cells assessed as reduction in cell viability by CCK8 assay.

Consider `CO[C@@H]1O[C@@H]([C@H](O)C(C)(C)O)C[C@H]1[C@@H]1CC[C@]2(C)C3=CC[C@H]4C(C)(C)[C@@H](O)CC[C@]4(C)[C@H]3CC[C@@]12C`, for which the result in assay [1], in assay [2], in assay [3], in assay [4] and in assay [5] was inactive.

For the molecule `CC(C)=CCC[C@@H](C(=O)O)[C@@H]1[C@@H](O)C[C@]2(C)C3=CC[C@H]4C(C)(C)[C@@H](O)CC[C@]4(C)[C@H]3C[C@@H](O)[C@@]12C`, the outcome in assay [1], in assay [2], in assay [3], in assay [4] and in assay [5] was inactive.

As to `COC(=O)C[C@H]1[C@]2(C)C3=C(C)[C@H](c4ccoc4)C[C@H]3O[C@@H]2[C@@H]2OC[C@]3(C)[C@H](OC(=O)/C=C/c4ccccc4)C[C@H](OC(=O)c4ccccc4)[C@@]1(C)[C@@H]23`, the outcome in assay [1], in assay [2], in assay [3], in assay [4] and in assay [5] was inactive.

Regarding `COC(=O)C[C@H]1[C@](C)(C2=C(C)[C@H](c3ccoc3)C[C@@H]2OC)[C@H](OC(=O)c2ccccc2)[C@@H]2OC[C@]3(C)[C@H](OC(C)=O)C[C@H](OC(C)=O)[C@@]1(C)[C@@H]23`, the outcome in assay [1], in assay [2], in assay [3], in assay [4] and in assay [5] was inactive.

With `C/C=C(\C)C(=O)O[C@@H]1C[C@H](OC(=O)/C=C/c2ccccc2)[C@@]2(C)[C@H]3[C@@H](OC[C@]13C)[C@H]1O[C@@H]3C[C@@H](c4ccoc4)C(C)=C3[C@@]1(C)[C@@H]2CC(=O)OC`, the outcome in assay [1], in assay [2], in assay [3], in assay [4] and in assay [5] was inactive.

Regarding `C/C=C(\C)C(=O)O[C@@H]1[C@@H]2OC[C@]3(C)[C@H](OC(C)=O)C[C@H](OC(C)=O)[C@@](C)([C@@H]23)[C@H]2C[C@H](O)O[C@H]3C[C@@H](c4ccoc4)C(C)=C3[C@]12C`, the result in assay [1], in assay [2], in assay [3], in assay [4] and in assay [5] was inactive.

For the molecule `C/C=C(\C)C(=O)O[C@@H]1[C@@H]2OC[C@]3(C)[C@H](OC(C)=O)C[C@H](OC(C)=O)[C@@](C)([C@@H]23)[C@@H](CC(=O)OC)[C@]1(C)C1=C(C)[C@H](c2ccoc2)C[C@@H]1OC`, the outcome in assay [1], in assay [2], in assay [3], in assay [4] and in assay [5] was inactive.

`COC(=O)C[C@H]1[C@](C)(C2=C(C)[C@H](c3ccoc3)C[C@H]2OC)[C@H](OC(=O)c2ccccc2)[C@@H]2OC[C@]3(C)[C@H](OC(C)=O)C[C@H](OC(C)=O)[C@@]1(C)[C@@H]23`: the result in assay [1], in assay [2], in assay [3], in assay [4] and in assay [5] was inactive.

Take `C=C(C)C(=O)O[C@@H]1[C@@H]2OC[C@]3(C)[C@H](OC(C)=O)C[C@H](OC(C)=O)[C@@](C)([C@@H]23)[C@@H](CC(=O)OC)[C@]1(C)C1=C(C)[C@H](c2ccoc2)C[C@@H]1OC`: the outcome in assay [1], in assay [2], in assay [3], in assay [4] and in assay [5] was inactive.

On to `CC(C)=CCC[C@H]1C(=O)O[C@H]2C[C@]3(C)C4=CC(=O)[C@H]5C(C)(C)[C@@H](O)CC[C@]5(C)[C@H]4CC[C@@]3(C)[C@@H]21`, for which the result in assay [1], in assay [2], in assay [3], in assay [4] and in assay [5] was inactive.

As to `COC(=O)C[C@H]1[C@]2(C)C3=C(C)[C@H](c4ccoc4)C[C@H]3O[C@@H]2[C@H](OC(C)=O)[C@H]2[C@](C)(C=O)[C@H](O)C[C@H](OC(=O)c3ccccc3)[C@@]21C`, the outcome in assay [1], in assay [2], in assay [3], in assay [4] and in assay [5] was inactive.

In the case of `C/C=C(\C)C(=O)O[C@H]1C[C@@H](OC(=O)c2ccccc2)[C@@]2(C)CO[C@H]3[C@H]4O[C@@H]5C[C@@H](c6ccoc6)C(C)=C5[C@@]4(C)[C@H](CC(=O)OC)[C@]1(C)[C@@H]32`, the outcome in assay [1], in assay [2], in assay [3], in assay [4] and in assay [5] was inactive.

`CO[C@H]1O[C@@H]([C@H](O)C(C)(C)O)C[C@H]1[C@@H]1CC[C@]2(C)C3=CC[C@H]4C(C)(C)[C@@H](O)CC[C@]4(C)[C@H]3CC[C@@]12C`: the outcome in assay [1], in assay [2], in assay [3], in assay [4] and in assay [5] was inactive.

Turning to `C/C=C(\C)C(=O)O[C@@H]1[C@@H]2OC[C@]3(C)[C@H](OC(C)=O)C[C@H](OC(C)=O)[C@@](C)([C@@H]23)[C@@H](CC(=O)OC)[C@]1(C)C1=C(C)[C@H](c2ccoc2)C[C@H]1OC`, the outcome in assay [1], in assay [2], in assay [3], in assay [4] and in assay [5] was inactive.

For the molecule `COC(=O)C[C@H]1[C@]2(C)C3=C(C)[C@H](c4ccoc4)C[C@H]3O[C@@H]2[C@@H]2OC[C@]3(C)[C@H](OC(=O)c4ccccc4)C[C@H](OC(=O)/C=C/c4ccccc4)[C@@]1(C)[C@@H]23`, the result in assay [1], in assay [2], in assay [3], in assay [4] and in assay [5] was inactive.

On to `CC(=O)O[C@H](C(=O)C=C(C)C)[C@H](C)[C@@H]1CC[C@]2(C)C3=CC[C@H]4C(C)(C)C(=O)CC[C@]4(C)[C@H]3C[C@@H](O)[C@@]12C`, for which the outcome in assay [1], in assay [3], in assay [4] and in assay [5] was inactive. Further, in assay [2], the IC50 (in general, the concentration at which inhibition is half-maximal) is 5.9 µM.

Turning to `CC(=O)O[C@H]1C[C@@H](OC(C)=O)[C@@]2(C)CO[C@H]3[C@@H](OC(=O)c4ccccc4)[C@@]4(C)C5=C(C)[C@H](c6ccoc6)C[C@@H]5O[C@@H](O)C[C@@H]4[C@]1(C)[C@@H]32`, the result in assay [1], in assay [2], in assay [3], in assay [4] and in assay [5] was inactive.

`COC(=O)C[C@H]1[C@]2(C)C3=C(C)[C@H](c4ccoc4)C[C@H]3O[C@@H]2[C@@H]2OC[C@]3(C)[C@H](OC(=O)c4ccccc4)C[C@H](OC(=O)c4ccccc4)[C@@]1(C)[C@@H]23`: the outcome in assay [1], in assay [3], in assay [4] and in assay [5] was inactive. Also, the IC50 in assay [2] worked out at 0.3 µM.

With `C/C=C(\C)C(=O)O[C@H]1C[C@@H](O)[C@@](C)(C=O)[C@@H]2[C@@H](OC(C)=O)[C@H]3O[C@@H]4C[C@@H](c5ccoc5)C(C)=C4[C@@]3(C)[C@H](CC(=O)OC)[C@@]12C`, the result in assay [1], in assay [2], in assay [3], in assay [4] and in assay [5] was inactive.

With `COC(=O)C[C@H]1[C@](C)(C2=C(C)[C@H](c3ccoc3)C[C@@H]2OC(C)=O)[C@H](OC(=O)c2ccccc2)[C@@H]2OC[C@]3(C)[C@H](OC(C)=O)C[C@H](OC(C)=O)[C@@]1(C)[C@@H]23`, the result in assay [1], in assay [2], in assay [3], in assay [4] and in assay [5] was inactive.

Consider `CC(=O)O[C@H]1[C@@H](OC(=O)c2ccccc2)[C@@]2(C)C3=CC[C@@H](c4ccoc4)[C@]3(C)[C@@H](OC(C)=O)C[C@@H]2[C@@]2(C)[C@@H](O)C[C@@H](OC(C)=O)[C@](C)(C=O)[C@H]12`, for which the result in assay [1], in assay [2], in assay [3], in assay [4] and in assay [5] was inactive.
